Patent US9487506B2, “Mineralocorticoid receptor antagonists” (Merck Sharp & Dohme Corp., priority 2011, dated 2016)

Target: T1, full-length human Mineralocorticoid Receptor (MR) (Homo sapiens, UniProt P08235)
T1 construct: host or cells: PathHunter CHO-K1 cells
T1 sequence (P08235 1-984): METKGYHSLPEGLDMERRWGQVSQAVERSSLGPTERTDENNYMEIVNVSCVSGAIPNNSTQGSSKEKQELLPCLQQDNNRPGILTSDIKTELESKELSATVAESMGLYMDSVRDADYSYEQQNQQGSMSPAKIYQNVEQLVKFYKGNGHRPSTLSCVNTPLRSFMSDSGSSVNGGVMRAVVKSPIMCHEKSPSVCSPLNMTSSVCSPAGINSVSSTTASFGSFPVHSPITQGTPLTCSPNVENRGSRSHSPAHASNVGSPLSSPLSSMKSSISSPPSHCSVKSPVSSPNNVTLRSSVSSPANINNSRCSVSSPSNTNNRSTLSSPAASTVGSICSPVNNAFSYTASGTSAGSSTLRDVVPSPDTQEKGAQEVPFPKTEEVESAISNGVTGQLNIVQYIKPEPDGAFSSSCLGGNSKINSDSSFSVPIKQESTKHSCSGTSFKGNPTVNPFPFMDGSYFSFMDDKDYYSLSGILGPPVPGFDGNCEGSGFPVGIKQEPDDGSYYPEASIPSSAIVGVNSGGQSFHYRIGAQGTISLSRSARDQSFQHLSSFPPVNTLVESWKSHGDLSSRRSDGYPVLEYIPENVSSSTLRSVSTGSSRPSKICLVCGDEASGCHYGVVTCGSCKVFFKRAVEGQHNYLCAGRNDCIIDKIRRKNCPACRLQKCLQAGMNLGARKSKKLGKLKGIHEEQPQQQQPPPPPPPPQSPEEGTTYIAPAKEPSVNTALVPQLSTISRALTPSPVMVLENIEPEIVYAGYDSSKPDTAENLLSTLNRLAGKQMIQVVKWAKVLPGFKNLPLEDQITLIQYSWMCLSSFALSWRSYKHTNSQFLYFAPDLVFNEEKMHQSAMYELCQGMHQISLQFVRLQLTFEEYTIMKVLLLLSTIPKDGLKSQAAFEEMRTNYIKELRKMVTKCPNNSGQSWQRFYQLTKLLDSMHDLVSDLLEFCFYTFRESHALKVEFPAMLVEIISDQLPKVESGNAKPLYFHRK
Assay: human MR NH Pro assay (PathHunter Protein:Protein interaction assay), MR antagonist activity
Format: cell-based
Settings: for IC50: PathHunter CHO-K1 cells overexpressing human MR, aldosterone 0.3 nM to about 1 nM, 6 hours at 37° C., luminescence, read-out: IP (rating), IP is the inflection point for a given dose-response titration curve; for relative MR antagonist activity of the separated enantiomers: enantiomers from chiral SFC OJ-H separation of the racemate
Text: The activity of the compounds of the present invention regarding mineralocorticoid receptor antagonism can be evaluated using the following assay.
Assessment of MR Potency in HMR NH Pro Assay
The human MR NH Pro assay is a commercially available PathHunter™ Protein:Protein interaction assay (DiscoveRx; http://www.discoverx.com/nhrs/prod-nhrs.php) that measures the ability of compounds to antagonize full-length human Mineralocorticoid Receptor (MR) binding to a coactivator peptide. PathHunter™ CHO-K1 cells that overexpress human MR (Cat #93-0456C2, Lot No: 09B0913) were cultured in growth media (F12K w/Glutamine and phenol red (Gibco 11765-047) supplemented with 10% HI FBS (Gibco 16000); 0.25 mg/ml Hygromycin in PBS (Invitrogen 10687-010, 50 mg/ml); 100 I.U./mL and 100 μg/mL Pen/Strep (Gibco 15140-122); 0.6 mg/mL Geneticin (Gibco 10131-027).
Compounds were assessed for MR antagonist activity by incubating the cells with a titrating dose of compound in F12K w/Glutamine and phenol red culture media (Invitrogen 11765-047) supplemented with 1% Charcoal/Dextran Treated FBS (Hyclone #SH30068.01) and aldosterone (0.3 nM to about 1 nM) for 6 hours at 37° C. Cells were then treated with DiscoveRx detection reagent for 1 hour at room temperature and read using an Envision luminescence plate reader. % activity was measured relative to cells treated with aldosterone alone and IC50 values were calculated using ADA software.
Stock solution was prepared at 10 μM in DMSO and stored at −20° C. for assay, dilute in assay media to 1.8 or 6 nM (6× of final concentration=about 0.3 nM to about 1.0 nM)
5. Cell line: PathHunter CHO-K1 MR cells Cat #93-0456C2, Lot No: 09B0913, from operation liquid nitrogen stock.
3. The cells concentration was adjusted to 4×10^5 cells/mL.
4. Cells were (25 μL/well) added to the wells of a 384 well plate.
5. The plate was then incubated at 37° C. over night in a humidified incubator with 5% CO2.
6. Test compounds were titrated starting at 4.4 mM, 10-point titration in 1:3 dilution.
7. Aldosterone was diluted in assay media to 1.8 nM or 6 nM from 10 μM stock (final concentration to be about 0.3 nM to about 1.0 nM)
1. 10K exponentially growing cells/well (25 μL) were resuspended in assay media and plated into each well using the Multidrop (Thermo Electron) (use white wall, clear bottom assay plates (Costar #3570) and incubated overnight at 37° C., 5% CO2.
2. 0.25 μL 120× test compound (final DMSO concentration should be <1%) was added to each well n=2, 10 point titrations starting at 36.7 μM final concentration.
3. 5 μL of 6× agonist (final aldosterone concentration should be about 0.3 nM to about 1.0 nM) was added to all wells (using the PlateMate Plus; (ThermoFisher) (except those wells in columns 23 and 24)
4. 5 μL of assay media was added to all wells in column 23 and 24.
5. Cells were then incubated for 6 hrs at 37° C., 5% CO2.
6. 15 μL 3× DiscoveRx detection reagent was then added to each well.
7. Plates were incubated for 1 hour at room temperature in the dark.
8. Plates were read on Envision (PerkinElmer) luminesence plate reader and analyzed using ADA.

SMILES	IC50	relative MR antagonist activity of the separated enantiomers
CS(=O)(=O)Nc1cccc2c(C(CCC#N)c3ccc(Cl)cc3F)n[nH]c12 (single isomer, unassigned) [second peak, N-{3-[1-(4-Chloro-2-fluorophenyl)-3-cyanopropyl]-1H-indazol-7-yl}methanesulfonamide]		less active
CCC(O)(CC)CCC(c1ccc(Cl)cc1F)c1n[nH]c2c(NS(C)(=O)=O)cccc12 (stereo not drawn) [Example 11, N-{3-[1-(4-chloro-2-fluorophenyl)-4-hydroxy-4-ethylhexyl]-1H-indazol-7-yl}methanesulfonamide]	0.5 to 6 µM	
N#CCCC(c1ccc(Cl)cc1F)c1n[nH]c2ccccc12 (stereo not drawn) [Example 12, 4-(4-chloro-2-fluorophenyl)-4-(1H-indazol-3-yl)butanenitrile]	0.5 to 6 µM	
Cn1nc(C(CCC#N)c2ccc(Cl)cc2F)c2ccccc21 (stereo not drawn) [Example 13, 4-(4-chloro-2-fluorophenyl)-4-(1-methyl-1H-indazol-3-yl)butanenitrile]	0.5 to 6 µM	
CCn1nc(C(CCC#N)c2ccc(Cl)cc2F)c2ccccc21 (stereo not drawn) [Example 14, 4-(4-chloro-2-fluorophenyl)-4-(1-ethyl-1H-indazol-3-yl)butanenitrile]	0.5 to 6 µM	
CCCn1nc(C(CCC#N)c2ccc(Cl)cc2F)c2ccccc21 (stereo not drawn) [Example 15, 4-(4-chloro-2-fluorophenyl)-4-(1-propyl-1H-indazol-3-yl)butanenitrile]	0.5 to 6 µM	
N#CCCC(c1ccc(Cl)cc1F)c1nn(Cc2ccccc2)c2ccccc12 (stereo not drawn) [Example 16, 4-(1-benzyl-1H-indazol-3-yl)-4-(4-chloro-2-fluorophenyl)butanenitrile]	0.5 to 6 µM	
COC(=O)Cn1nc(C(CCC#N)c2ccc(Cl)cc2F)c2ccccc21 (stereo not drawn) [Example 17A, methyl {3-[1-(4-chloro-2-fluorophenyl)-3-cyanopropyl]-1H-indazol-1-yl}acetate]	0.5 to 6 µM	
CC(C)(C)OC(=O)Cn1nc(C(CCC#N)c2ccc(Cl)cc2F)c2ccccc21 (stereo not drawn) [Example 17B, tert-Butyl {3-[1-(4-chloro-2-fluorophenyl)-3-cyanopropyl]-1H-indazol-1-yl}acetate]	0.5 to 6 µM	
COC(=O)CCn1nc(C(CCC#N)c2ccc(Cl)cc2F)c2ccccc21 (stereo not drawn) [Example 17C, Methyl 3-{3-[1-(4-chloro-2-fluorophenyl)-3-cyanopropyl]-1H-indazol-1-yl}propanoate]	0.5 to 6 µM	
CSCn1nc(C(CCC#N)c2ccc(Cl)cc2F)c2ccccc21 (stereo not drawn) [Example 17D, 4-(4-chloro-2-fluorophenyl)-4-{1-[(methyl-sulfanyl)-methyl]-1H-indazol-3-yl}-butanenitrile]	0.5 to 6 µM	

Other lines, results leading:

IC50	relative MR antagonist activity of the separated enantiomers	SMILES
< 0.1 µM	more active	CS(=O)(=O)Nc1cccc2c(C(CCC#N)c3ccc(Cl)cc3F)n[nH]c12 (single isomer, unassigned) [Example 2, N-{3-[1-(4-chloro-2-fluorophenyl)-3-cyanopropyl]-1H-indazol-7-yl}methanesulfonamide (Single Enantiomer)]
< 0.1 µM		CCC(c1ccc(Cl)cc1)(c1n[nH]c2c(NS(C)(=O)=O)cccc12)C(C)O (single isomer, unassigned; diastereoisomer a) [Compound 24A, N-(3-(3-(4-chlorophenyl)-2-hydroxypentan-3-yl)-1H-indazol-7-yl)methane sulfonamide(diastereoisomer A)]
< 0.1 µM		CCC(c1ccc(Cl)cc1)(c1n[nH]c2c(NS(C)(=O)=O)cccc12)C(C)O (single isomer, unassigned; diastereoisomer b) [Compound 24B]
0.5 to 6 µM		CCC(C#N)(c1ccc(Cl)cc1)c1n[nH]c2c([N+](=O)[O-])cccc12 (stereo not drawn) [Compound 22, 2-(4-chlorophenyl)-2-(7-nitro-1H-indazol-3-yl)butanenitrile]
0.5 to 6 µM		CCC(C#N)(c1ccc(Cl)cc1)c1n[nH]c2c(NS(C)(=O)=O)cccc12 (stereo not drawn) [Compound 23, N-(3-(1-(4-chlorophenyl)-1-cyanopropyl)-1H-indazol-7-yl)methanesulfonamide]
< 0.1 µM		CCC(CO)(c1ccc(Cl)cc1)c1n[nH]c2c(NS(C)(=O)=O)cccc12 (stereo not drawn) [Compound 25, N-(3-(2-(4-chlorophenyl)-1-hydroxybutan-2-yl)-1H-indazol-7-yl)methane sulfonamide]
0.5 to 6 µM		Fc1cc(Cl)ccc1Cc1n[nH]c2ccccc12 [Example 1, 3-(4-chloro-2-fluorobenzyl)-1H-indazole]
0.5 to 6 µM		N#CCCC(c1ccc(Cl)cc1F)c1n[nH]c2c(-c3cccnc3)cccc12 (stereo not drawn) [Example 3, 4-(4-chloro-2-fluorophenyl)-4-(7-pyridin-3-yl-1H-indazol-3-yl)butanenitrile]
0.5 to 6 µM		N#CCCC(c1ccc(Cl)cc1F)c1n[nH]c2c(-c3ccncc3)cccc12 (stereo not drawn) [Example 4, 4-(4-chloro-2-fluorophenyl)-4-(7-pyridin-4-yl-1H-indazol-3-yl)butanenitrile]
0.1 to 0.5 µM		CS(=O)(=O)Nc1cccc2c(C(CCCO)c3ccc(Cl)cc3F)n[nH]c12 (stereo not drawn) [Example 5, N-{3-[1-(4-chloro-2-fluorophenyl)-4-hydroxybutyl]-1H-indazol-7-yl}methanesulfonamide]
0.5 to 6 µM		CS(=O)(=O)Nc1cccc2c(C(CC#N)c3ccc(Cl)cc3F)n[nH]c12 (stereo not drawn) [Example 6, N-{3-[1-(4-chloro-2-fluorophenyl)-2-cyanoethyl]-1H-indazol-7-yl}methanesulfonamide]
0.5 to 6 µM		N#CCCC(c1ccc(Cl)cc1F)c1n[nH]c2c(NS(=O)(=O)C3CC3)cccc12 (stereo not drawn) [Example 7, N-{3-[1-(4-chloro-2-fluorophenyl)-3-cyanopropyl]-1H-indazol-7-yl}cyclopropanesulfonamide]
0.5 to 6 µM		Cc1noc(CCC(c2ccc(Cl)cc2F)c2n[nH]c3c(NS(C)(=O)=O)cccc23)n1 (stereo not drawn) [Example 8, N-{3-[1-(4-chloro-2-fluorophenyl)-3-(3-methyl-1,2,4-oxadiazol-5-yl)propyl]-1H-indazol-7-yl}methanesulfonamide]
0.5 to 6 µM		CC(=O)CCC(c1ccc(Cl)cc1F)c1n[nH]c2c(NS(C)(=O)=O)cccc12 (stereo not drawn) [Example 9, N-{3-[1-(4-chloro-2-fluorophenyl)-4-oxopentyl]-1H-indazol-7-yl}methanesulfonamide]
0.5 to 6 µM		CC(C)(O)CCC(c1ccc(Cl)cc1F)c1n[nH]c2c(NS(C)(=O)=O)cccc12 (stereo not drawn) [Example 10, n-{3-[1-(4-chloro-2-fluorophenyl)-4-hydroxy-4-methylpentyl]-1H-indazol-7-yl}methanesulfonamide]
